Test results: patent US11938139B2, “Pharmaceutical compositions and methods for anxiety, depression and other psychiatric disorders” (LA PharmaTech Inc., priority 2019, dated 2024)

What was measured:
Assay type in all cases: in vivo, human
[1] = system: patient with generalized anxiety disorder, panic disorder, and agitation; test: Clinical case, Example 1: patient; conditions: person; fluoxetine alone 4 months, sertraline alone 6 months, alprazolam 2.0 mg/daily alone 4 months
Source text: A patient had generalized anxiety disorder, panic disorder, and agitation. […] Because azelastine is approved for the treatment of allergic rhinitis and asthma and has never been used to treat patients with depression or anxiety, this dramatic clinical outcome from this composition is unexpected. […] This way of activating the GABA system may interact more effectively with other neurotransmitter systems, including noradrenergic, serotonergic, cholinergic, and opioidergic systems. […] This composition of two mechanisms of action for two different classes of diseases provided a new solution for treating psychiatric diseases which are incurable by other options, such traditional SSRIs, NSRIs, benzodiazepines, and the like alone.

[2] = system: patient with major depressive disorder and agitation; test: Clinical case, Example 3: patient; conditions: person; disorder for about 2 years; fluoxetine alone, alprazolam 2.0 mg/daily alone
Source text: (§1) The inventors believe the hypothesis as explained in example 1 above is applicable here as well. In this case, the composition of two mechanisms of action for two different classes of diseases provided a new solution for treating […] major depressive disorder and agitation which could not be treated with other options, such traditional SSRIs, NSRIs, benzodiazepines, and the like alone.

[3] = system: patient with generalized anxiety disorder, agitation and insomnia; test: Clinical case, Example 2: patient; conditions: person; disorder for 8 months; alprazolam 2.0 mg/daily alone
Source text: as §1, with “generalized anxiety diseases” for “major depressive disorder”, “agitation along with insomnia” for “agitation”

## CN[C@H]1CC[C@@H](c2ccc(Cl)c(Cl)c2)c2ccccc21 [sertraline]
[1]
  clinical improvement with single-agent treatment: no significant clinical improvement

## Cc1nnc2n1-c1ccc(Cl)cc1C(c1ccccc1)=NC2 [alprazolam, 8-Chloro-1-methyl-6-phenyl-4H-s-triazolo(4,3-a)(1,4)benzodiazepine]
[2]
  effectiveness of earlier treatment alone: no treatment, including fluoxetine alone from SSRIs or alprazolam (2.0 mg/daily) alone from benzodiazepines, had been effective
[1]
  clinical improvement with single-agent treatment: no significant clinical improvement
[3]
  effectiveness of earlier treatment alone: no treatment had been effective

## CNCCC(Oc1ccc(C(F)(F)F)cc1)c1ccccc1 (stereo not drawn) [fluoxetine]
[2]
  effectiveness of earlier treatment alone: no treatment, including fluoxetine alone from SSRIs or alprazolam (2.0 mg/daily) alone from benzodiazepines, had been effective
[1]
  clinical improvement with single-agent treatment: no significant clinical improvement
